# Assays:
# [1] = Sub. Chronic Toxicity. 90 days; type: in vivo
# Excerpt: (§1) Table 5. contains the results of several acute and sub-chronic toxicity tests.
# [2] = system: S. aureus Linezolid Resistant; assay: Efficacy at 30 seconds (Table 2); type: cell-based; conditions: 0.01 to 0.05% aqueous solution
# E. coli NDM-1 = assay: Efficacy at 30 seconds (Table 2); type: cell-based; conditions: 0.01 to 0.05% aqueous solution
# S. Epidermidis = assay: ASTM E2315 Time Kill Assay for Antimicrobial Agents; type: cell-based; conditions: 0.046% HOCl aqueous solution; 30 seconds; high organic load
# Protocol: (§2) Table 3. below represents the efficacy of 0.046% aqueous hypochlorous acid solution in the presence of high organic load. ASTM E2315 Time Kill Assay for Antimicrobial Agents. The study was performed in ATS labs in Minnesota recommended by the U.S. FDA's Tentative Final Monograph for OTC Healthcare Antiseptic Drug. […] Additional times were evaluated: 1 minute, 5 minutes, and 10 minutes, all with and without organic soil (Using 10% whole milk and 5% Fetal Bovine Serum). The trend in the efficiency is maintained under the same proportions.
# Enterobacter aerogenes = assay: as above; type: cell-based; conditions: 0.046% HOCl aqueous solution; 30 seconds; high organic load
# Protocol: as §2
# P. aeruginosa = assay: as above; type: cell-based; conditions: 0.046% HOCl aqueous solution; 30 seconds; high organic load
# Protocol: as §2
# K. pneumoniae NDM-1 = assay: as above; type: cell-based; conditions: 0.046% HOCl aqueous solution; 30 seconds; high organic load
# Protocol: as §2
# K. pneumoniae = assay: Efficacy at 30 seconds (Table 2); type: cell-based; conditions: 0.01 to 0.05% aqueous solution
# Herpes Simplex = assay: Efficacy at 30 seconds (Table 2); type: cell-based; conditions: 0.01 to 0.05% aqueous solution
# [3] = Absorption through intact skin; type: in vitro ADME; conditions: low concentrations of hypochlorous acid
# Excerpt: Thus, the potential for producing skin reactions is extremely low.
# Enterobacter cloacae = assay: Antimicrobial efficacy of HOCl skin cleanser (Table 1); type: cell-based; conditions: 0.01% HOCl; 30 seconds
# [4] = Randomized double blind placebo controlled trial as sexual cleanser; type: in vivo, human; conditions: six months
# Excerpt: The purpose of this study was to evaluate the real world use and effect of the solution in a group of 47 willing participants located in Cartagena, Colombia. These willing participants were all active sex workers, whom on a weekly basis, were actively engaged in sexual intercourse with the general public. This demographic was selected as a “high risk” group of individuals that frequently encounter many forms of sexually transmitted infections. Throughout the study, the “HOCl test” group was compared with the “placebo” group in an effort to gauge the efficacy of prevention and treatment for contact-to-contact sexually transmitted infections as well as common infections related to sex. […] The patients were required to complete extensive evaluations regarding their sexual health and lifestyles. The duration of the study was six months.
# host cells = conditions: 0.04% HOCl aqueous solution
# Acute Oral Toxicity = conditions: both sexes, rat, in vivo, 5000 mg/Kg, Wistar Rats, 0.05% concentration HOCl aqueous solutions, males and females, read-out: acute median lethal dose LD50
# Excerpt: as §1
# VRE = assay: Efficacy at 30 seconds (Table 2); type: cell-based, vancomycin-resistant enterococci; conditions: 0.01 to 0.05% aqueous solution
# Escherichia coli = assay: Antimicrobial efficacy of HOCl skin cleanser (Table 1); type: cell-based; conditions: 0.01% HOCl; 30 seconds
# MRSA = assay: Efficacy at 30 seconds (Table 2); type: cell-based, methicillin-resistant staphylococcus aureus; conditions: 0.01 to 0.05% aqueous solution
# [5] = Biocompatibility and animal testing, overall; type: in vivo; conditions: 0.05% hypochlorous acid solution
# Excerpt: The extensive biocompatibility and animal testing that have been performed supports the safety and efficacy of the 0.05% hypochlorous acid solution. […] Due to the safety of the solution, the hypochlorous acid solution can be used repeatedly without altering or changing the properties of the skin and mucous membranes.
# [6] = Biocompatibility in treated patients; type: in vivo, human; conditions: 0.05% HOCl aqueous solution; over 20,000 patients treated
# Excerpt: The 0.05% HOCl concentration aqueous solution is biocompatible and found to have a high safety profile. Over 20,000 patients have been treated with the solution with zero reported cases of hypersensitivity. The solution is pH controlled for biocompatibility, formulated for use on sensitive mucous membrane areas of the body, is non-antibiotic, non-irritating, non-allergenic, non-invasive, and non-toxic. No adverse effects against cellular growth in the patient.
# S. pyogenes = assay: Antimicrobial efficacy of HOCl skin cleanser (Table 1); type: cell-based; conditions: 0.01% HOCl; 30 seconds
# [7] = system: Trichophyton mentagrophytes; assay: Efficacy at 30 seconds (Table 2); type: cell-based; conditions: 0.01 to 0.05% aqueous solution
# [8] = Fournier's gangrene patient case; type: in vivo, human; conditions: HOCl (0.046%) aqueous solution; one patient; four step surgical process; 24 hours period
# Protocol: A HOCl (0.046%) aqueous solution was preformed in a four step surgical process to a patient that was infected with Fournier's gangrene. Skin was removed from the infected area before administering the HOCl solution on the infected areas in a 24 hours period. Following application, skin graphs were placed over the surgical wound for rehabilitation process.
# Herpes simplex virus = assay: Antimicrobial efficacy of HOCl skin cleanser (Table 1); type: cell-based; conditions: 0.01% HOCl; 30 seconds
# [9] = USP <51> Antimicrobial Effectiveness Testing; type: cell-based; conditions: 0.05% HOCl aqueous solution
# Excerpt: A 0.05% HOCl aqueous solution is intended for the cleansing and removal of the most common bacteria and viruses associated with skin-to-skin sexually transmitted diseases (pre and post sexual activity) to promote general sexual hygiene.
# Human papilloma virus = assay: Antimicrobial efficacy of HOCl skin cleanser (Table 1); type: cell-based; conditions: 0.01% HOCl; 30 seconds
# [10] = HOCl (0.046%) test group, 24 patients
smiles,measurement,setting,value
"OCl [HOCl, hypochlorous acid]",mortalities,"[1]; 90 days, 1000 mg/Kg Body weight, Wistar Rats","No mortalities, considered"
same,toxicity assessment,"[1]; rat, in vivo, 1000 mg/kg",non-toxic
same,% Reduction,[2],99.999%
same,Log Reduction,[2],>5.84 Log10
same,% Reduction,E. coli NDM-1,99.999%
same,Log Reduction,E. coli NDM-1,>5.47 Log10
same,% Reduction,S. Epidermidis,99.999%
same,Log Reduction,S. Epidermidis,>5.60 Log10
same,% Reduction,Enterobacter aerogenes,99.999%
same,Log Reduction,Enterobacter aerogenes,>5.90 Log10
same,% Reduction,P. aeruginosa,99.999%
same,Log Reduction,P. aeruginosa,>5.96 Log10
same,% Reduction,K. pneumoniae NDM-1,99.999%
same,Log Reduction,K. pneumoniae NDM-1,>5.59 Log10
same,% Reduction,K. pneumoniae,99.999%
same,Log Reduction,K. pneumoniae,>5.46 Log10
same,% Reduction,Herpes Simplex,99.999%
same,Log Reduction,Herpes Simplex,>5.35 Log10
same,absorption of the compound through intact skin,[3],no evidence of absorption of the compound through intact skin
same,% Reduction,Enterobacter cloacae,99.99%
same,Log Reduction,Enterobacter cloacae,>5.76 Log10
same,rashes from irritation,[4]; [10],two
same,"rashes from irritation, increase",[4]; [10],8.3%
same,total infections,[4]; [10],three
same,"total infections, increase",[4]; [10],13.5%
same,urinary tract infection,[4]; [10],one
same,"urinary tract infection, increase",[4]; [10],4.2%
same,yeast infections,[4]; [10],zero
same,reported contact-to-contact STIs,"[4]; HOCl (0.046%) test group, 24 patients, 85% confidence level",zero
same,change of the pH of the vagina,[4]; all 47 patients,No significant change
same,adverse effects to the host cells,host cells,no adverse effects to the host cells
same,LD50,Acute Oral Toxicity,> 5000 mg/kg
same,% Reduction,VRE,99.999%
same,Log Reduction,VRE,>5.51 Log10
same,% Reduction,Escherichia coli,99.99%
same,Log Reduction,Escherichia coli,>6.59 Log10
same,% Reduction,MRSA,99.999%
same,Log Reduction,MRSA,>5.89 Log10
same,adverse effects to the skin or mucous membranes,[5],without adverse effects to the skin or mucous membranes
same,reported cases of hypersensitivity,[6],zero
same,% Reduction,S. pyogenes,99.99%
same,Log Reduction,S. pyogenes,>6.12 Log10
same,% Reduction,[7],>99.99%
same,Log Reduction,[7],>4.92 Log10
same,outcome in Fournier's gangrene,[8],prevention of further spread of the disease as well as prevention of amputation and additional complications
same,% Reduction,Herpes simplex virus,99.99%
same,Log Reduction,Herpes simplex virus,>5.8 Log10
same,USP <51> Antimicrobial Effectiveness Testing outcome,[9],meets all requirements of USP <51> Antimicrobial Effectiveness Testing
same,% Reduction,Human papilloma virus,99.99%
same,Log Reduction,Human papilloma virus,>6.0 Log10
